The record followed here is PubChem BioAssay AID1902 (Broad Institute, 2009).

In this test the target is S. pyogenes SKKanGAS, kanamycin survival, BacTiterGlo, 6 h. In words: SKKanGAS survival reduction under kanamycin, dose response, streptokinase promoter inhibitor project, SKKanGAS strain, luminescence, dose confirmation (AID 1902).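 Note: lower survival reflects blocked streptokinase promoter driving kanamycin resistance gene.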

Molecules are shown by their SMILES. The source made the active and inactive calls.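 Rule for the calls: active = EC50 no more than a set limit of log units above the highest dose; inactive = the rest.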 Bounds are passed on as bounds.

As to `COc1ccc(/C=N/NC(=O)c2cc(C(C)(C)C)[nH]n2)cc1COc1ccc(F)cc1F`, the EC50 was 7.62 µM. In the case of `O=[N+]([O-])c1ccc(-c2nc(-c3cccs3)c(-c3cccs3)[nH]2)cc1`, the EC50 is 9.57 µM. As to `Cc1oc2cc(Br)c(O)c(Br)c2c1-c1ccccc1`, the EC50 is 3.28 µM. For the compound `CCN1/C(=C/c2ccc3cc(C)ccc3[n+]2CC)Sc2ccc3sccc3c21`, the EC50 was 2.34 µM. Consider `CC1=NN(c2ccc([N+](=O)[O-])cc2)C(=O)/C1=C\N(C)C`, for which the EC50 was 7.94 µM. For `Cc1cccc(Cc2cnc(N3C(=N)SC(C)C3=O)s2)c1` (stereo unspecified) the value was 0.131 µM; for `Cc1cc2c(cc1C)-c1c(ssc1=Nc1ccc(S(N)(=O)=O)cc1)C(C)(C)N2`, 11.7 µM.

Take `Cc1ccc(CN2CN(S(=O)(=O)c3cccs3)c3nc4ccccc4nc32)cc1`: the concentration for a half-maximal effect (EC50) is 7.74 µM.

For the compound `O=C(Nc1nnc(-c2ccco2)o1)c1ccc(Cl)cc1`, the EC50 is 1.21 µM.

`COc1ccc(-n2c(=S)[nH]c3cc(C(=O)Nc4ccc(C)c(F)c4)ccc3c2=O)c(OC)c1`: the concentration giving a half-maximal response (EC50) was 2.84 µM.

Take `Cc1[nH]n(-c2cccc3ccccc23)c(=O)c1/C=N/NC(=O)c1cccc([N+](=O)[O-])c1`: the EC50 was 2.47 µM.

`Brc1ccc2[nH]c3c(N4CCc5ccccc5C4)ncnc3c2c1`: the EC50 was 6.22 µM.

As for `CN(C)c1ccc(/C=C/c2ccc3ccccc3[n+]2C)cc1`, the EC50 is 7.2 µM. For `O=C(NNc1nc2ccc(Cl)cc2s1)c1cc(-c2cccs2)nc2ccccc12` the value was 0.334 µM; for `CCc1ccc(NC2=NCC(c3ccccc3)S2)cc1` (stereo unspecified), 6.4 µM.

For `N#Cc1nc(-c2ccc(OCc3ccccc3Cl)cc2)oc1NCCCn1ccnc1`, the EC50 was 3.27 µM. For `O=C(Nc1nnc(-c2ccccc2Cl)o1)c1ccc(S(=O)(=O)N2CCCCCC2)cc1` the value was 0.264 µM; for `O=C(NC(=S)Nc1ccc(Cl)cn1)C(c1ccccc1)c1ccccc1`, 3.43 µM. In the case of `CC(C)OC(=O)c1c2nc3ccccc3nc2n2c1[nH]c(=O)c1ccccc12`, the EC50 is 0.91 µM. For `Cc1cc(C)c(C)c(S(=O)(=O)N2CCC(C(=O)NNC(=O)c3ccccc3O)CC2)c1C`, the half-maximal effective concentration (EC50) was 11.8 µM. For `Cc1ccc(-c2cc(C(=O)Nc3ccc(S(=O)(=O)Nc4cc(C)on4)cc3)c3ccccc3n2)c(C)c1`, the 50% effective concentration (EC50) was 5.67 µM. Then `CC(C)(C)OC(=O)[C@H](Cc1ccccc1)NC(=O)c1[nH]cnc1C(=O)Nc1ccc(Cl)cc1`, with 3.52 µM.

Turning to `O=C(NNC(=S)NC(=O)c1ccco1)c1ccc(NC(=O)c2ccccc2)cc1`, the EC50 is 1.21 µM. For `COc1c(CC=C(C)C)cc(C2CC(=O)c3c(O)cc(O)cc3O2)c(CC=C(C)C)c1O` (stereo unspecified) the value was 1.87 µM; for `O=C(CNC(=O)c1ccc(F)cc1)N/N=C/c1cc(Br)ccc1OCc1ccccc1`, 12.2 µM; for `Cc1nc2c(=O)n(C)c(=O)nc-2n(C)n1`, 2.77 µM. Take `Nc1nc(N)c(C=Nc2ccc(Br)cc2)c(Nc2ccc(Br)cc2)n1`: the half-maximal effective concentration (EC50) was 1.69 µM. Take `COc1ccc(CNC(=O)Cc2csc(NC(=O)Nc3ccccc3OC)n2)cc1`: the EC50 was 15 µM. On to `COC(=O)[C@@]12CCCN1[C@H](c1ccc(-c3cccc(Cl)c3)c(OC)c1)[C@H]1C(=O)N(C)C(=O)[C@H]12`, for which the EC50 was > 15 µM (inactive).

Turning to `CC1C/C(=N\NC(=S)NCc2ccccc2)CC(C)(C)C1` (stereo unspecified), the EC50 is 3.96 µM. For `O=C(Cn1nnc(-c2ccccc2)n1)N/N=C/c1cc([N+](=O)[O-])ccc1O`, the EC50 was 0.75 µM. Turning to `CSCc1cc(N(C)c2ccccc2)nc(-c2ccccn2)n1`, the EC50 was 0.136 µM. For `CC(C)(C)c1ccc(CN(Cc2ccco2)Cc2nnnn2C2CCCC2)cc1` the value was 4.69 µM; for `Cc1ccccc1-n1cnc2cc(NCc3cccs3)ccc21`, 4.69 µM.

For `CCc1ccc(S(=O)(=O)/N=C2\C=C(Nc3ccc(O)cc3)C(=O)c3ccccc32)cc1`, the EC50 is 1.51 µM.

On to `Nc1c(C(=O)OCc2ccccc2)c2nc3ccccc3nc2n1Cc1cccs1`, for which the concentration giving a half-maximal response (EC50) was 5.04 µM. For `COc1ccc(-c2cc(C3CCN(c4ncccc4[N+](=O)[O-])CC3)[nH]n2)cc1` the value was 5.01 µM. As to `Cc1ccc(-c2nc3cc(NS(=O)(=O)c4ccc(C)cc4)ccc3o2)cc1`, the concentration giving a half-maximal response (EC50) is 6.28 µM. For `CCOc1ccc(NS(=O)(=O)c2cc(NC(=O)c3ccc(C)cc3)ccc2Cl)cc1` the value was 3.72 µM; for `O=[N+]([O-])c1cc(Cl)cc(/C=N/Nc2nc3ccccc3s2)c1O`, 1.54 µM; for `Cc1cccc(C)c1NC(=S)N/N=C/c1ccc(OCCC(C)C)cc1`, 2.49 µM. As to `O=C(NC(NC(=S)Nc1ccc(Cl)cc1Cl)C(Cl)(Cl)Cl)c1cccc([N+](=O)[O-])c1` (stereo unspecified), the EC50 is 0.99 µM. Then `NC(N)=N/N=C/c1ccc(OCc2ccccc2)c(OCc2ccccc2)c1`, with 6.82 µM; and `Oc1c(Cl)cc(Cl)cc1/C=N/NC(=S)NC1CC2C=CC1C2` (stereo unspecified), with 0.177 µM. On to `COc1ccc(C(=O)NCC(=O)OCCCOC(=O)CNC(=O)c2ccc(OC)c(OC)c2)cc1OC`, for which the EC50 was > 15 µM (inactive). Take `CC(C)=CCOc1ccc([C@@H]2COc3c(ccc4c3C=CC(C)(C)O4)C2)c(O)c1`: the EC50 is 1.83 µM. For the compound `NNC(=O)/C(=N/Nc1ccccc1)S(=O)(=O)c1ccc(Cl)cc1`, the EC50 is 8.15 µM.

Take `O=C(Cn1nc(CNc2ccc(Cl)cc2)[n+]2c1CCCCC2)c1ccc(Br)cc1`: the EC50 was 10.8 µM. For `Cc1cc2oc(=O)cc(CN(C)Cc3ccccc3Cl)c2cc1C` the value was 4.2 µM; for `COc1ccc(/C=C2\Sc3ccc(C(=O)N4CCCC4)cc3N(C)C2=O)cc1OC`, 0.515 µM; for `Cc1oc(C(C)(C)C)cc1C(=O)N1CCN(C(c2ccccc2)c2ccccc2)CC1`, 2.89 µM.

In the case of `CCCc1nc2ccccc2c(=O)n1NC(=O)c1c(O)c2cccc3c2n(c1=O)CCC3`, the EC50 was 2.6 µM.

With `O=C1/C(=C/c2cccnc2)SC(=NCc2ccccc2)N1Cc1ccccc1`, the EC50 was 8.09 µM. For `CC(C)(C)c1ccc(C(=O)Nc2nnc(C3=COCCO3)o2)cc1` the value was 0.446 µM. For `COc1ccc(C(=O)N2CCc3c([nH]c4ccccc34)C2C(F)(F)F)cc1` (stereo unspecified), the EC50 is > 15 µM (inactive). With `CC12CC3(C)CC(C)(C1)CC(C(=O)NC1=NCCS1)(C2)C3`, the EC50 is 0.992 µM. `CCC(C)c1ccc(C(C)NC(=S)NC2CCCCC2)cc1` (stereo unspecified): the EC50 was 9.12 µM. Then `Cc1cc2c(cc1C)CSC(c1c(O)ccc3ccccc13)SC2`, with 2.08 µM; and `Cc1[nH]n(-c2ncc(-c3ccccc3)s2)c(=O)c1C(c1ccc(Br)cc1)C(C#N)C#N` (stereo unspecified), with 5.83 µM; and `CC1COc2c(N3CCN(C)CC3)c(F)cc3c(=O)c(C(=O)O)cn1c23` (stereo unspecified), with 3.69 µM.

Take `O=C(Nc1nnc(SCc2ccccc2Cl)s1)C1COc2ccccc2O1` (stereo unspecified): the EC50 was 7.21 µM. With `CC12CCC(C(=O)N(CSC(=S)N/N=C\c3ccccc3O)C1=O)C2(C)C` (stereo unspecified), the EC50 is 2.55 µM. For `O=C(NCC1(N2CCCCC2)CCCCC1)c1cccc(NS(=O)(=O)c2ccccc2)c1` the value was > 15 µM (inactive); for `COc1ccc(CCNC(=O)CSc2nncn2N)cc1OC`, > 15 µM (inactive); for `O=Nc1c(-c2c(O)[nH]c3cc(Br)ccc23)[nH]c2ccccc12`, 2.95 µM. With `N#Cc1ccc(-c2ccccc2)nc1SCC(=O)c1cc2ccccc2oc1=O`, the concentration giving a half-maximal response (EC50) was 0.596 µM.
